Legend:
KDR-Kinase (VEGFR-2) = molecular target: T1, KDR-Kinase (VEGFR-2) (Homo sapiens, UniProt P35968); experiment: KDR Kinase Inhibition; type: biochemical; settings: GST-kinase domain fusion construct of the KDR kinase; poly(Glu4Tyr) substrate, 32P-γATP
T1 construct: GST-kinase domain fusion construct of the KDR kinase; GST
Method: Kinase activity was measured with a GST-kinase domain fusion construct of the KDR kinase according to the following protocol to obtain concentration response curves. Components were added into a microtiterplate in the following sequence: 10 μl of inhibitor in threefold final concentration [3% DMSO in buffer (40 mM Tris Cl pH 7.5; 1 mM DTT, 1 mM MnCl2, 10 mM MgCl2, 2.5 Promille Polyethyleneglycol 20000)] and 10 μl of substrate mixture [24 μM ATP, 24 μg/ml poly(Glu4Tyr) in buffer, specific activity approx. 500 cpm/pmol ^32P-γATP]. Reaction was started by adding 10 μl of enzyme preparation diluted appropriately in buffer that contains 10 μM vanadate. After incubation for exactly 10 min the reaction was stopped by adding of 10 μl stop solution (250 mM EDTA). 10 μl of the reaction mixture were transferred to phosphocellulose filters. The filters were washed in 0.1% phosphoric acid, dried before meltilex scintillator was applied (Wallac, Perkin-Elmer) and the radioactivity was counted.

[1] = molecular target: T2, human Cytochrome P 450 isoenzyme 2C9 (Homo sapiens, UniProt P11712); experiment: Cytochrome P450 Inhibition (2C9); type: in vitro ADME; settings: baculovirus/insect cell-expressed human isoenzyme; read-out: IC50 CYP 2C9
T2 construct: host or cells: baculovirus/insect cells
Method: (§1) The Cytochrome P450 isoenzyme inhibition was performed according to the publication of Crespi et al. (Anal. Biochem., 1997, 248, 188-190) with use of the baculovirus/insect cell-expressed, human Cytochrome P 450 isoenzymes (2C9 and 2C19).

[2] = molecular target: T3, human Cytochrome P 450 isoenzyme 2C19 (Homo sapiens, UniProt P33261); experiment: Cytochrome P450 Inhibition (2C19); type: in vitro ADME; settings: baculovirus/insect cell-expressed human isoenzyme; read-out: IC50 CYP 2C19
T3 construct: host or cells: baculovirus/insect cells
Method: as §1

T3 sequence (P33261 whole entry): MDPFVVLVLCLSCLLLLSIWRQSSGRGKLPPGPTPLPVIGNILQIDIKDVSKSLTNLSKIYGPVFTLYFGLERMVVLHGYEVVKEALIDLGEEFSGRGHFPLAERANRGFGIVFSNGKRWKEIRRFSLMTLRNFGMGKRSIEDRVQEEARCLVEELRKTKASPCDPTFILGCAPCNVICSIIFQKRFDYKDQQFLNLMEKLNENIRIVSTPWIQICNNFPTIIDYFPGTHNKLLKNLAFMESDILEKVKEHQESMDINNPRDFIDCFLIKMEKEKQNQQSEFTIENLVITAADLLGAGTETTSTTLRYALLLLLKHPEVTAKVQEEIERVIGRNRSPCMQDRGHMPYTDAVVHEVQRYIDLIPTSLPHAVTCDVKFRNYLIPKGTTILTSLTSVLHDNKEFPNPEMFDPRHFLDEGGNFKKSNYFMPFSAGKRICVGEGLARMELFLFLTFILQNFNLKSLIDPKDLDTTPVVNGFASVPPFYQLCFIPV
T2 sequence (P11712 whole entry): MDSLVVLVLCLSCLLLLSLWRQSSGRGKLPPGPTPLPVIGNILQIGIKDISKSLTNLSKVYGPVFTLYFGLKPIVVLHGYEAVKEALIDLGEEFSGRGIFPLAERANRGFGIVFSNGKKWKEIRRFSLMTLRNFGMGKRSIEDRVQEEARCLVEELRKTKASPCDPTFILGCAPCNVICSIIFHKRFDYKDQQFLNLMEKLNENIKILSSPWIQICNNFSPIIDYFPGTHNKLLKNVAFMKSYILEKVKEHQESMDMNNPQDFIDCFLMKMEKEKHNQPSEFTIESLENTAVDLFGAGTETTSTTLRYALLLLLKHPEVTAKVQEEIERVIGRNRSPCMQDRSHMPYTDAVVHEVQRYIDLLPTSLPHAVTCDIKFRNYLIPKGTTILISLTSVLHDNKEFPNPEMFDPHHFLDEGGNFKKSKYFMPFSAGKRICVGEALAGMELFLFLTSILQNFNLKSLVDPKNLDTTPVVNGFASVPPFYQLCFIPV
T1 sequence (P35968 834-1162 limits assumed, species assumed): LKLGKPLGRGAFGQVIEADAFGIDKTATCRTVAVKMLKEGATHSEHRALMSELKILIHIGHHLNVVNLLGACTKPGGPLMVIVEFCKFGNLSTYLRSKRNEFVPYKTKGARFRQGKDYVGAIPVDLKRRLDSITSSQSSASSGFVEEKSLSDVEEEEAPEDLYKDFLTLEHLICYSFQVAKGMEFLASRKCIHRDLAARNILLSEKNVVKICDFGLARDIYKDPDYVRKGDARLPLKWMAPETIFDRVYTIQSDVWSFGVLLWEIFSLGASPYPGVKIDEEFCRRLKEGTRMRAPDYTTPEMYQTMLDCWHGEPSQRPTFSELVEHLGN

Work on CNC(=O)Nc1cc(CNc2ncccc2C(=O)Nc2ccc3cn(C)nc3c2)ccn1 [Example 1.0, N-(2-methyl-2H-indazol-6-yl)-2-{[2-(3-methyl-ureido)-pyridin-4-ylmethyl]-amino}-nicotinamide] yielded an IC50 (KDR-Kinase (VEGFR-2)) of 0.01 µM, an IC50 [1] of 11.7 µM and an IC50 [2] greater than 30 µM. For the same molecule, the melting point was 205 to 207 °C.

CNC(=O)Nc1cc(CNc2ncccc2C(=O)Nc2cccc(C(F)(F)F)c2)ccn1 [Example 1.1, 2-{[2-(3-methyl-ureido)-pyridin-4-ylmethyl]-amino}-N-(3-trifluoromethyl-phenyl)-nicotinamide] gave a melting point of 206 to 207 °C.

For CNC(=O)Nc1cc(CNc2ncccc2C(=O)Nc2ccc3cnn(C)c3c2)ccn1 [Example 1.2, N-(1-methyl-1H-indazol-6-yl)-2-{[2-(3-methyl-ureido)-pyridin-4-ylmethyl]-amino}-nicotinamide], the melting point was 228 to 229 °C.

Molecule CNC(=O)Nc1cc(CNc2ncccc2C(=O)Nc2cc3ccccc3cn2)ccn1 [Example 1.3, N-isoquinolin-3-yl-2-{[2-(3-methyl-ureido)-pyridin-4-ylmethyl]-amino}-nicotinamide] has a melting point of 191 to 192 °C.

For CNC(=O)Nc1cc(CNc2ncccc2C(=O)Nc2ccc3c(cnn3C)c2)ccn1 [Example 1.4, N-(1-methyl-1H-indazol-5-yl)-2-{[2-(3-methyl-ureido)-pyridin-4-ylmethyl]-amino}-nicotinamide], the melting point was 219 to 220 °C.

Work on Cn1cc2ccc(NC(=O)c3cccnc3NCc3ccnc(NC(=O)N4CCOCC4)c3)cc2n1 [Example 2.0, morpholine-4-carboxylic acid (4-{[3-(2-methyl-2H-indazol-6-ylcarbamoyl)-pyridin-2-ylamino]-methyl}-pyridin-2-yl)-amide] yielded an IC50 (KDR-Kinase (VEGFR-2)) of 0.029 µM, an IC50 [1] greater than 30 µM and an IC50 [2] greater than 30 µM.

From patent publication US7906533B2, “Nicotinamide pyridinureas as vascular endothelial growth factor (VEGF) receptor kinase inhibitors” (Bayer Schering Pharma AG, priority 2004, dated 2011)
